Results as given in patent publication US20180015054A1, “Method of Maintaining the Anti-Depressant Effect of Ketamine With Lithium” (Icahn School of Medicine at Mount Sinai, priority 2014, published 2018).

Columns and labels:
[1] = tested on: patients with treatment-resistant major depression (TRD); assay: Planned randomized placebo-controlled double-blind trial of lithium + ketamine in TRD; type: in vivo, human
From the text: A single-site early phase study will enroll patients with treatment-resistant major depression (TRD) in a randomized, placebo (PLC)-controlled, double blind clinical trial of lithium (Li)+ketamine (KET). The study will efficiently test the efficacy of Li compared to PLC in continuing the antidepressant response to KET. The study occurs in several phases. During a Screening phase participants undergo informed consent followed by a thorough medical and psychiatric evaluation. Eligible participants who meet all study inclusion/exclusion criteria receive a single Test KET(ketamine) Infusion to determine antidepressant response status. Non-responders [defined as <50% improvement in depression severity as measured by the Montgomery-Asberg Depression Rating Scale (MADRS) 24 hours following the infusion] are exited from the study and provided with standard of care. KET responders (2:50% improvement in MADRS) proceed to the Li/PLC treatment phase in which participants receive up to 1200 mg/day of Li or matching PLC under double blind conditions. Participants proceed to a 4-week Continuation Phase while remaining on their treatment assignment (Li/PLC) during which time depressive symptoms are monitored twice weekly. The primary outcome is depression severity as measured by the MADRS in the Li compared to PLC group at the 2-week point during the Continuation Phase. […]

PTSD symptom severity = conditions: assessed 24 hours after infusion; cited from earlier work
depressive symptoms = conditions: cited from earlier work
[2] = tested on: patients with BPD, TRD, MDD and PTSD; conditions: cited from earlier work
[3] = tested on: patients with treatment-resistant depression (TRD); conditions: cited from earlier work
[4] = tested on: patients with treatment-resistant major depression; conditions: cited from earlier work
[5] = tested on: patients with treatment-resistant major depression; conditions: cited from earlier work; remark: listed apart in the source
PTSD patients = conditions: three clusters: re-experiencing, avoidance and numbing, hyperarousal; cited from earlier work

## O=C([O-])[O-].[Li+].[Li+] [lithium, lithium carbonate]
[1]; ketamine responders receiving lithium, after last dose of ketamine
  anticipated maintenance of the ketamine anti-depressant effect: at least two or three months
[1]; lithium carbonate 300-1800 mg daily
  expected duration of therapeutic effect of lithium following a response to ketamine: at least 3 months

## CNC1(c2ccccc2Cl)CCCCC1=O (centres unmarked) [ketamine]
PTSD symptom severity
  reduction in PTSD symptom severity compared with midazolam: significant and rapid reduction
Depressive symptoms; 4-week assessment period after ketamine
  cumulative probability of relapse: 73%
[2]; as early as, following single intravenous administration
  onset of antidepressant effects: 40 min
[2]; following a single administration
  duration of antidepressant efficacy: a few days to approximately a week or two
[3]; 4-week observation period after ketamine
  cumulative risk of relapse: 62%
[3]; 26 TRD patients, single open-label IV infusion 0.5 mg/kg
  response rate (reduction of 50% or more on MADRS): 65%
[4]; 3-month observation period, free of concomitant medication
  cumulative risk of relapse: 70%
[4]; after first ketamine infusion
  time to rapid improvement in depressive symptoms: ≤ 24 h
[4]; following sixth and final ketamine infusion
  median time to relapse: 18 days
[4]; repeated infusions over 2 weeks
  overall response rate: 70.8%
[5]; 24 hours after single IV infusion 0.5 mg/kg, P<0.001
  improvement in MADRS score compared to midazolam group: significantly greater improvement
[5]; no longer separated from placebo at 7-day time point
  duration of efficacy following a ketamine infusion: 1 week
[5]; no patient beyond this time
  duration of dissociative or psychotomimetic effects: ≤ 2 h
[5]; single IV infusion 0.5 mg/kg
  safety and tolerability: very safe and well tolerated

## CN[C@H]1CC[C@@H](c2ccc(Cl)c(Cl)c2)c2ccccc21 [sertraline]
PTSD patients
  efficacy in PTSD: modest effect sizes and limited efficacy

## Fc1ccc([C@@H]2CCNC[C@H]2COc2ccc3c(c2)OCO3)cc1 [paroxetine]
PTSD patients
  efficacy in PTSD: modest effect sizes and limited efficacy

## Nc1nc2ccc(OC(F)(F)F)cc2s1 [riluzole]
Depressive symptoms; 4-week study
  relapse prevention following ketamine compared to placebo: no benefit of riluzole beyond placebo
[3]; TRD
  relapse prevention following ketamine compared to placebo: not superior to placebo
